Drawing on ChEMBL document CHEMBL4392825, “New SIRT2 inhibitors: Histidine-based bleomycin spin-off” (Bioorg Med Chem, 2019), this text covers IC50 and Activity for 18 compounds.

What is called IC50 is the midpoint of a concentration-inhibition curve.

The target of assay [1] is T1, NAD-dependent protein deacetylase sirtuin-2 (Homo sapiens, UniProt Q8IXJ6).
T1 sequence (Q8IXJ6 whole entry): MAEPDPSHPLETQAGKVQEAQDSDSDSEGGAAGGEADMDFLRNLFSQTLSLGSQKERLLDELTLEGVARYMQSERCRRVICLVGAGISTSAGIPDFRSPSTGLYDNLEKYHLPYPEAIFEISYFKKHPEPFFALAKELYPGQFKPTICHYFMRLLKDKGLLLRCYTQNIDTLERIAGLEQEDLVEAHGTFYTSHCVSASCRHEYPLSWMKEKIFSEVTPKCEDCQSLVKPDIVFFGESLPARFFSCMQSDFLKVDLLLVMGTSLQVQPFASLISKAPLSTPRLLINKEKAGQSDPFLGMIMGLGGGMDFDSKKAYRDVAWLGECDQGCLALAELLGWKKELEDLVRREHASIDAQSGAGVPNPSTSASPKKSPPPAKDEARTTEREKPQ
Put plainly: Inhibition of recombinant SIRT2 (unknown origin) using FAM-RHKK(Ac)LM as substrate measured after 60 mins by electrophoretic mobility shift assay. (In general: Mobility shift assays separate free from complexed probe on a gel.)

For assay [2], the target named is T2, NAD-dependent protein deacetylase sirtuin-1 (Homo sapiens) (UniProt Q96EB6).
T2 sequence (whole entry): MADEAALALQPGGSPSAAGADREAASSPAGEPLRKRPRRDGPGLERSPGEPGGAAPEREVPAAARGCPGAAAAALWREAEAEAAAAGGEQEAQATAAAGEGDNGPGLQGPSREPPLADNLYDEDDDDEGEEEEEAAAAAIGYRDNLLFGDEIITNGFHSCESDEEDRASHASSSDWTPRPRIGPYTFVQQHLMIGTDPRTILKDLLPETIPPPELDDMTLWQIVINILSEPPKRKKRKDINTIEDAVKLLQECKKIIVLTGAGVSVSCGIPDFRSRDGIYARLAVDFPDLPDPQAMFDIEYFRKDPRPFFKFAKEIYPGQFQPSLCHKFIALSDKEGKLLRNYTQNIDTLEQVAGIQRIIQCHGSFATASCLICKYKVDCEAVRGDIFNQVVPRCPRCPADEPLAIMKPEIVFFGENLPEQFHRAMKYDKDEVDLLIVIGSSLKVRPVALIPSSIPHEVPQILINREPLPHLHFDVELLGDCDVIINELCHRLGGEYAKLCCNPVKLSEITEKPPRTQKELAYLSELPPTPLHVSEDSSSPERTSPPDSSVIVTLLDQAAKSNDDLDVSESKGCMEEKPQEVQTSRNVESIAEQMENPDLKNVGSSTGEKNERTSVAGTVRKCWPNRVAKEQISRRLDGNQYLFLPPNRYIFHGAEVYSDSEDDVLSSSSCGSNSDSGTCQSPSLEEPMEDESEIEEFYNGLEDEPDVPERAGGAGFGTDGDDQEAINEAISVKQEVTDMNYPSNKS
Description: Inhibition of recombinant SIRT1 (unknown origin) assessed as residual activity using RHKK(Ac)-MCA as substrate measured after 60 mins by fluorescence assay relative to control. On the set-up: concentration or dose not given beside the values.

Assay [3] concerns K562. Put plainly: Cytotoxicity against human K562 cells assessed as reduction in cell viability measured after 1 day by MTT assay. To be noted: K562, 24 h. In kind it is functional, cell-based.
For assay [4], the system named is MCF7. Put plainly: Cytotoxicity against human MCF7 cells assessed as reduction in cell viability measured after 4 days by MTT assay. To be noted: MCF7, 96 h. In kind it is functional, cell-based. (In general: Formazan colour is commonly taken as a measure of viable cells.)
Assay [5] has as its system MT2. Description: Cytotoxicity against human MT2 cells assessed as reduction in cell viability measured after 1 day by MTT assay. In kind it is cell-based. To be noted: MT2, 24 h.
The target of assay [6] is T3, NAD-dependent protein deacetylase sirtuin-3, mitochondrial (Homo sapiens) (UniProt Q9NTG7).
T3 sequence (whole entry): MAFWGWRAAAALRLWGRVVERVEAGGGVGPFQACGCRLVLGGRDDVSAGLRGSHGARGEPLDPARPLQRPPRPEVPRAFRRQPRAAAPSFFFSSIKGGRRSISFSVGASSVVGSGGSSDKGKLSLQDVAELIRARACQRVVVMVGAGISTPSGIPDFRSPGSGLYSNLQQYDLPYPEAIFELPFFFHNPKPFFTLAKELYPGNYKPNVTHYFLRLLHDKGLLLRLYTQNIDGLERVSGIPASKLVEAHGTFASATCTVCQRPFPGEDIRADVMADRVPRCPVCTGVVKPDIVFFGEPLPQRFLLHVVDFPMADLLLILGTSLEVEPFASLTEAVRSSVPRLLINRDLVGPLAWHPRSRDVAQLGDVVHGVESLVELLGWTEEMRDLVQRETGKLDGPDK
Description: Inhibition of recombinant SIRT3 (unknown origin) assessed as residual activity using VSTPVK(Ac)-MCA as substrate measured after 60 mins by fluorescence assay relative to control. On the set-up: concentration or dose not given beside the values.

The target of assay [7] is T1, NAD-dependent protein deacetylase sirtuin-2. Put plainly: Inhibition of recombinant SIRT2 (unknown origin) using RHKK(Ac)-MCA as substrate measured after 60 mins by fluorescence assay.

Turning to `COC(=O)[C@H](Cc1cn(C(c2ccccc2)(c2ccccc2)c2ccccc2)cn1)NCc1ccccc1`, the IC50 in assay [1] stood at 16.4 µM.
Regarding `COC(=O)[C@H](Cc1cn(C(c2ccccc2)(c2ccccc2)c2ccccc2)cn1)NCc1cccc(Br)n1`, the IC50 in assay [1] is 7.5 µM.
As for `COC(=O)[C@H](Cc1cn(C(c2ccccc2)(c2ccccc2)c2ccccc2)cn1)NCc1ccc(N(C)C)cc1`, the figures for the Activity in assay [2] and in assay [6] were 105% and 81.7%, respectively. Further, the IC50 in assay [3] is 10.4 µM; in assay [4], 11.9 µM; in assay [5], 6.81 µM; in assay [1] it was 11.8 µM.
Take `COC(=O)[C@H](Cc1cn(C(c2ccccc2)(c2ccccc2)c2ccccc2)cn1)NCc1ccncc1Br`: the concentration for half-maximal inhibition (IC50) in assay [1] amounted to 6.7 µM.
The same measure, in the same setting: to `COC(=O)[C@H](Cc1cn(C(c2ccccc2)(c2ccccc2)c2ccccc2)cn1)NCc1cccc(N(C)C)c1` belongs 5.6 µM; to `COC(=O)[C@H](Cc1cn(C(c2ccccc2)(c2ccccc2)c2ccccc2)cn1)NCc1ccc(Br)cn1`, 10.2 µM.
Take `Cc1cc(C)nc(SCC(=O)Nc2ncc(Cc3cccc4ccccc34)s2)n1`: the figures for the IC50 in assay [3], in assay [4] and in assay [5] were above 100 µM, 13.7 µM and above 100 µM, respectively.
Take `CCN(CC)c1ccnc(CN[C@@H](Cc2cn(C(c3ccccc3)(c3ccccc3)c3ccccc3)cn2)C(=O)OC)c1`: the 50% inhibitory concentration (IC50) in assay [3] was 6.27 µM; in assay [4], 0.71 µM; in assay [5], 4.36 µM; in assay [1], 1.3 µM.
As for `COC(=O)[C@H](Cc1cn(C(c2ccccc2)(c2ccccc2)c2ccccc2)cn1)NCc1ccc(Br)nc1`, the Activity in assay [2] was determined as 102%; in assay [6], 71.9%. The IC50 in assay [3] is 5.35 µM; in assay [4], 9.87 µM; in assay [5], 1.37 µM; in assay [1], 5.9 µM.
As to `COC(=O)[C@H](Cc1c[nH]cn1)NCc1cc(N(C)C)cc(CN[C@@H](Cc2cn(C(c3ccccc3)(c3ccccc3)c3ccccc3)cn2)C(=O)OC)n1`, the 50% inhibitory concentration (IC50) was 6.51 µM in assay [3], 2.29 µM in assay [4], 8.61 µM in assay [5] and 5.5 µM in assay [7].
On to `COC(=O)[C@H](Cc1cn(C(c2ccccc2)(c2ccccc2)c2ccccc2)cn1)N(Cc1ccccc1)Cc1ccccc1`, for which the Activity is 116% in assay [2] and 90.7% in assay [6]. In assay [1], the IC50 was above 100 µM.
For the compound `COC(=O)[C@H](Cc1cn(C(c2ccccc2)(c2ccccc2)c2ccccc2)cn1)NC(=O)c1ccccn1`, in assay [1], the IC50 worked out at 20.4 µM.
As to `COC(=O)[C@H](Cc1cn(C(c2ccccc2)(c2ccccc2)c2ccccc2)cn1)NCc1ccccn1`, the Activity in assay [2] worked out at 96.5%; in assay [6], 67.7%. The IC50 in assay [3] came to 6.36 µM; in assay [4], 8.96 µM; in assay [5], 1.75 µM; in assay [1], 21.8 µM.
For the compound `COC(=O)[C@H](Cc1cn(C(c2ccccc2)(c2ccccc2)c2ccccc2)cn1)NCc1ccc2ccccc2n1`, the IC50 in assay [1] stood at 2.5 µM.
In the case of `COC(=O)[C@H](Cc1cn(C(c2ccccc2)(c2ccccc2)c2ccccc2)cn1)NCc1cc(N(C)C)ccn1`, the IC50 in assay [3] is 7.53 µM; in assay [4] it was 0.77 µM; in assay [5], 3.53 µM; in assay [7], 1.7 µM; in assay [1] it was 1.7 µM.
For `COC(=O)[C@H](Cc1cn(C(c2ccccc2)(c2ccccc2)c2ccccc2)cn1)NCc1cc(N(C)C)cc(CN[C@@H](Cc2cn(C(c3ccccc3)(c3ccccc3)c3ccccc3)cn2)C(=O)OC)n1`, the half-inhibitory concentration (IC50) in assay [3] stood at 7.91 µM; in assay [4], 1.72 µM; in assay [5], 8.86 µM; in assay [7], 8.8 µM.
As for `COC(=O)[C@@H](N)Cc1cn(C(c2ccccc2)(c2ccccc2)c2ccccc2)cn1`, the Activity in assay [2] is 95.9%; in assay [6] it was 76.2%. Also, the IC50 was 7.2 µM in assay [3], 49.1 µM in assay [4], 3.13 µM in assay [5] and 43 µM in assay [1].
For `COC(=O)[C@H](Cc1cn(C(c2ccccc2)(c2ccccc2)c2ccccc2)cn1)NCc1cnc2ccccc2c1`, the 50% inhibitory concentration (IC50) in assay [1] is 3.3 µM.
